Laboratory results as given in patent US20200270309A1, “MALEIMIDE GROUP-MODIFIED ANGIOGENESIS INHIBITOR HM-1 AND USE THEREOF” (NANJING ANJI BIOLOGICAL TECHNOLOGY CO., LTD, priority 2017, published 2020).
Peptide text beside a SMILES is read from it. * marks the point of attachment. X65 = O=C1C=CC(=O)N1c1cccc(CCCCCCCCCCCCC(=O)*)c1; X58 = O=C1C=CC(=O)N1c1cccc(CCCCCCCCCCCC(=O)*)c1

How the values were obtained:
HUVECs = assay: Transwell migration inhibition on HUVECs; type: cell-based, human; conditions: for Inhibition rate (%): HUVEC migration vs blank control; for Cell migration number (Mean ± SD): HUVECs, transwell, 24 h
[1] = system: IL-1β production by mouse peritoneal macrophages; assay: IL-1β production by mouse peritoneal macrophages (ELISA); type: cell-based; conditions: for Inhibition rate: IL-1β production, vs model group; for IL-1β: mouse peritoneal macrophages, 48 h, ELISA
How it was run: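 Starch-elicited (6%, i.p.) mouse peritoneal macrophages, 2×10^6 cells/mL in RPMI 1640, adhered 3 h; non-adherent cells washed off. Polypeptides added at low, medium and high concentrations, Dex as positive control; cultured 48 h, supernatant IL-1β measured.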

[2] = system: collagen-induced arthritis; assay: Mouse collagen-induced arthritis (CIA) animal model; type: in vivo; conditions: DBA/1 mice CIA model, dose 4.0 mg/kg, subcutaneous from day 30, n=10; for Clinical score: highest score 16
[3] = system: choroidal neovascularization; assay: Choroidal neovascularization in rats (laser photocoagulation, FFA); type: in vivo; conditions: BN rats
How it was run: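 Male BN rats aged 6-8 weeks were given 8 krypton-laser spots around the optic disc (647.1 nm, 350 mW, 50 μm, 0.05 s). Once the model was confirmed, groups of 5 got daily intravitreal compound at 0.05 μM or saline for 1 week. FFA followed at 3, 7, 14 and 28 days after dosing.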

[4] = system: retinal vascular endothelial nuclei; assay: Neovascularization in a rat model of premature retinopathy; type: in vivo, rats; conditions: dose 0.05 μM in the vitreous chamber from day 7 of modeling for one week; counted on day 14; oxygen-induced neonatal rats
How it was run: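 Newborn rats kept 7 d in chamber alternating 80% and 10% O2 every 24 h (23 °C), then room air. Intravitreal injection of test agents on day 7, saline for model and control; eyes taken day 14, HE-stained 4 μm sections. Endothelial nuclei breaching retinal inner limiting membrane counted, averaged per section per eye (10 sections).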

[5] = day 3 after administration, total light spot number was 297, 0.05 μM in the vitreous chamber once a day for 1 week
[6] = day 7 after administration, total light spot number was 186, 0.05 μM in the vitreous chamber once a day for 1 week
[7] = day 14 after administration, total light spot number was 137, 0.05 μM in the vitreous chamber once a day for 1 week
[8] = day 28 after administration, total light spot number was 69, 0.05 μM in the vitreous chamber once a day for 1 week

C[C@H](NC(=O)CNC(=O)[C@H](CCCNC(=N)N)NC(=O)CCCCCCCCCCCc1cccc(N2C(=O)C=CC2=O)c1)C(=O)N[C@@H](CC(=O)O)C(=O)N[C@@H](CCCNC(=N)N)C(=O)N[C@@H](C)C(=O)NCC(=O)NCC(=O)NCC(=O)NCC(=O)N[C@@H](CCCNC(=N)N)C(=O)NCC(=O)N[C@@H](CC(=O)O)C(=O)O [X35] (X58-RGADRAGGGGRGD-OH)
Inhibition rate (%) (HUVECs; dose 0.05 μM): 42.61% | Inhibition rate (%) (HUVECs; dose 0.1 μM): 50.57% | Inhibition rate (%) (HUVECs; dose 0.2 μM): 56.96% | Cell migration number (Mean ± SD) (HUVECs; dose 0.05 μM): 615.18 ± 57.71 | Cell migration number (Mean ± SD) (HUVECs; dose 0.1 μM): 529.83 ± 68.02 | Cell migration number (Mean ± SD) (HUVECs; dose 0.2 μM): 461.34 ± 66.82 | Inhibition rate ([1]; dose 0.05 μM): 23.62% | IL-1β ([1]; dose 0.05 μM): 718.81 ± 11.53 pg/mL | Inhibition rate ([1]; dose 0.1 μM): 30.79% | IL-1β ([1]; dose 0.1 μM): 651.42 ± 15.51 pg/mL | Inhibition rate ([1]; dose 0.2 μM): 34.61% | IL-1β ([1]; dose 0.2 μM): 615.43 ± 17.18 pg/mL | Joint swelling degree (mm) [2]: 0.76 ± 0.13 mm | Left and right paw swelling degree (mm) [2]: 0.85 ± 0.14 mm | Clinical score [2]: 8.78 ± 1.23 | CNV Incidence (%) [3, 5]: 52.19% | Leakage Light spot number [3, 5]: 155 | CNV Incidence (%) [3, 6]: 47.85% | Leakage Light spot number [3, 6]: 89 | CNV Incidence (%) [3, 7]: 46.72% | Leakage Light spot number [3, 7]: 64 | CNV Incidence (%) [3, 8]: 44.93% | Leakage Light spot number [3, 8]: 31 | Nuclei count (retinal vascular endothelial nuclei, average per section per eyeball) [4]: 8.544 ± 3.087

C[C@H](NC(=O)CNC(=O)[C@H](CCCNC(=N)N)NC(=O)CCCCCCCCCCCCc1cccc(N2C(=O)C=CC2=O)c1)C(=O)N[C@@H](CC(=O)O)C(=O)N[C@@H](CCCNC(=N)N)C(=O)N[C@@H](C)C(=O)NCC(=O)NCC(=O)NCC(=O)NCC(=O)N[C@@H](CCCNC(=N)N)C(=O)NCC(=O)N[C@@H](CC(=O)O)C(=O)O [X36] (X65-RGADRAGGGGRGD-OH)
Inhibition rate (%) (HUVECs; dose 0.05 μM): 52.07% | Inhibition rate (%) (HUVECs; dose 0.1 μM): 56.76% | Inhibition rate (%) (HUVECs; dose 0.2 μM): 57.92% | Cell migration number (Mean ± SD) (HUVECs; dose 0.05 μM): 513.79 ± 55.46 | Cell migration number (Mean ± SD) (HUVECs; dose 0.1 μM): 463.47 ± 50.27 | Cell migration number (Mean ± SD) (HUVECs; dose 0.2 μM): 451.01 ± 43.85 | Inhibition rate ([1]; dose 0.05 μM): 17.18% | IL-1β ([1]; dose 0.05 μM): 779.49 ± 11.56 pg/mL | Inhibition rate ([1]; dose 0.1 μM): 34.09% | IL-1β ([1]; dose 0.1 μM): 620.34 ± 15.26 pg/mL | Inhibition rate ([1]; dose 0.2 μM): 34.16% | IL-1β ([1]; dose 0.2 μM): 619.62 ± 11.89 pg/mL | Joint swelling degree (mm) [2]: 0.74 ± 0.14 mm | Left and right paw swelling degree (mm) [2]: 0.77 ± 0.13 mm | Clinical score [2]: 8.86 ± 1.23 | CNV Incidence (%) [3, 5]: 50.51% | Leakage Light spot number [3, 5]: 150 | CNV Incidence (%) [3, 6]: 49.46% | Leakage Light spot number [3, 6]: 92 | CNV Incidence (%) [3, 7]: 40.15% | Leakage Light spot number [3, 7]: 55 | CNV Incidence (%) [3, 8]: 43.48% | Leakage Light spot number [3, 8]: 30 | Nuclei count (retinal vascular endothelial nuclei, average per section per eyeball) [4]: 8.726 ± 3.273
